From the NIST ThermoML archive (doi:10.1016/j.fluid.2005.05.023)

Experiment: xn = mol fraction of the nth substance listed
Details: Liquid, Vibrating tube method, x1 = 1

CCO [ethanol] + Cc1ccccc1
mass density [kg/m3]
Details | 100 kPa | 5000 kPa | 10000 kPa | 15000 kPa | 20000 kPa | 25000 kPa | 30000 kPa | 35000 kPa | 40000 kPa | 45000 kPa
283.15 K | 798 | 802 | 805.9 | 809.5 | 813 | 816.4 | 819.7 | 822.8 | 825.9 | 828.8
293.15 K | 789.5 | 793.7 | 797.8 | 801.6 | 805.3 | 808.9 | 812.3 | 815.6 | 818.7 | 821.8
303.15 K | 780.9 | 785.3 | 789.6 | 793.7 | 797.5 | 801.3 | 804.8 | 808.2 | 811.5 | 814.7
313.15 K | 772.1 | 776.8 | 781.3 | 785.6 | 789.6 | 793.5 | 797.2 | 800.8 | 804.2 | 807.6
323.15 K | 763.3 | 768.3 | 773 | 777.6 | 781.8 | 785.9 | 789.7 | 793.5 | 797.1 | 800.5
333.15 K | 754 | 759.3 | 764.3 | 769.1 | 773.6 | 777.8 | 781.9 | 785.8 | 789.5 | 793.1
343.15 K | 744.5 | 750.1 | 755.5 | 760.5 | 765.3 | 769.8 | 774 | 778.1 | 782 | 785.7
353.15 K | – | 740.6 | 746.4 | 751.7 | 756.7 | 761.5 | 766 | 770.2 | 774.3 | 778.2
